The target in the experiment is T1, HLA-B*4402 (Homo sapiens, UniProt P01889, A223V/A65T/A93T/A95T/D201E/D98Y/E176V/E187L/E204Q/E69K/G107R/H137Y/K202T/L105A/L119I/N104T/N87E/Q56L/Q94N/R106L/R155S/R180D/S101N/S121R/S35A/S48T/T118I/V36M/W191S/Y140D/Y91S).
T1 construct: expressed in transfected cells; host or cells: C1R cells (MHC class I negative, EBV-transformed lymphoblastoid)
Kind of experiment: Competitive assay: inhibition of CTL 159/5 lysis of C1R-B*4402 cells sensitized with SEQ ID NO: 18. The format is cell-based. The conditions noted are these: C1R-B44 cells (B*4402 and B*4403 transfectants).

Data on one substance can be found in patent publication US6060257A, “Tumor rejection antigens presented by HLA-B44 molecules, and uses thereof” (Ludwig Institute for Cancer Research, priority 1996, dated 2000).

In the case of “Gin Glu Glu Gly Pro Ser Thr Phe [SEQ ID NO: 20]”, the “inhibition of lysis of C1R-B44 cells (indicates binding to HLA-B44 molecules)” value is on record as “did inhibit lysis”.
